Target: T1, B1R of the rat (Rattus norvegicus, UniProt P97583)
T1 construct: expressed in transfected cells; host or cells: CHO K1 cells (Chinese hamster ovary), stably transfected
T1 sequence (P97583 1-337): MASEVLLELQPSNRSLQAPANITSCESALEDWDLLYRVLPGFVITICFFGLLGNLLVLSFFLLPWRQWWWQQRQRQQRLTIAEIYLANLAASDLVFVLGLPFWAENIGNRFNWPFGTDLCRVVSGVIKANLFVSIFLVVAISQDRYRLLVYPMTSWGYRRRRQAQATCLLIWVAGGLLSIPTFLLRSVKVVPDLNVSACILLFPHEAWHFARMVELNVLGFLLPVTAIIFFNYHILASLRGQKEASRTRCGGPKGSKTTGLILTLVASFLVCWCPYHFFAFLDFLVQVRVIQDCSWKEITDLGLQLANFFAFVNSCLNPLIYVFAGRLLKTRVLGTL
Experiment: FLIPR Ca2+ functional assay, B1R antagonism, rat B1R in CHO K1 cells
Assay type: cell-based
Details: test substance 10 μM; rB1R CHO K1 cells; agonist Des-Arg9 bradykinin at EC80; % of maximum achievable inhibition
Experimental: The agonistic or antagonistic action of substances on the bradykinin 1 receptor (B1R) of the human and rat species can be quantified with ectopically expressing cell lines (CHO K1 cells) and with the aid of a Ca^2+-sensitive dye (Fluo-4) using a fluorescent imaging plate reader (FLIPR). The value in % activation is based on the Ca^2+ signal after addition of Lys-Des-Arg^9 bradykinin (0.5 nM) or Des-Arg^9 bradykinin (100 nM). Antagonists lead to a suppression of the Ca^2+ influx following administration of the agonist. The % inhibition in comparison with the maximum achievable inhibition is indicated.
1. Functional Investigation on the Bradykinin 1 Receptor (B1R) The agonistic or antagonistic action of substances can be determined on the bradykinin 1 receptor (B1R) of the human and rat species with the following assay. According to this assay, the Ca^2+ inflow through the channel is quantified with the aid of a Ca^2+-sensitive dye (Fluo-4 type, Molecular Probes Europe BV, Leiden, Netherlands) in a fluorescent imaging plate reader (FLIPR, Molecular Devices, Sunnyvale, USA). 2. Method: Chinese hamster ovary cells (CHO K1 cells) which are stably transfected with the human B1R gene (hB1R cells) or the B1R gene of the rat (rB1R cells) are used. For functional investigations these cells are plated-out onto black 96-well plates with a clear base (BD Biosciences, Heidelberg, Germany or Greiner, Frickenhausen, Germany) in a density of 20,000-35,000 cells/well. Overnight the cells are incubated at 37° C. and 5% CO2 in culture medium (hB1R cells: Ham's Nutrient Mixture F12, Gibco Invitrogen GmbH, Karlsruhe, Germany or DMEM, Sigma-Aldrich, Taufkirchen, Germany; rB1R cells: D-MEM/F12, Gibco Invitrogen, Karlsruhe, Germany) with 10 vol. % FBS (foetal bovine serum, Gibco Invitrogen GmbH, Karlsruhe, Germany or PAN Biotech GmbH, Aidenbach, Germany).
On the following day the cells are loaded with 2.13 μM Fluo-4 (Molecular Probes Europe BV, Leiden, Netherlands) in HBSS buffer (Hank's buffered saline solution, Gibco Invitrogen GmbH, Karlsruhe, Germany) with 2.5 mM probenecid (Sigma-Aldrich, Taufkirchen, Germany) and 10 mM HEPES (Sigma-Aldrich, Taufkirchen, Germany) for 60 min at 37° C. The plates are subsequently washed twice with HBSS buffer, and HBSS buffer which additionally contains 0.1% BSA (bovine serum albumin; Sigma-Aldrich, Taufkirchen, Germany), 5.6 mM glucose and 0.05% gelatine (Merck KGaA, Darmstadt, Germany) is added. After a further incubation of 20 minutes at RT, the plates are inserted into the FLIPR for Ca^2+ measurement. Alternatively they are washed with buffer A (15 mM HEPES, 80 mM NaCl, 5 mM KCl, 1.2 mM CaCl2, 0.7 mM MgSO4, 2 g/l glucose, 2.5 mM probenecid) and loaded with buffer A with added 2.5 μM Fluo-4 and 0.025% Pluronic F127 (Sigma-Aldrich, Taufkirchen, Germany). The cells are then washed twice with buffer A and incubated for 30 minutes with buffer A, which additionally contains 0.05% BSA and 0.05% gelatine, at RT and then used for Ca^2+ measurement in the FLIPR. The Ca^2+-dependent fluorescence is measured here before and after addition of substances (λex=488 nm, λem=540 nm). The quantification is performed by measuring the highest fluorescence intensity (FC, fluorescence counts) over time.
The FLIPR protocol comprises two additions of substance. Test substances (10 μM) are first pipetted onto the cells and the Ca^2+ inflow is compared with the control (hB1R: Lys-Des-Arg^9 bradykinin >=50 nM; rB1R: Des-Arg^9 bradykinin 10 μM). The value in % activation based on the Ca^2+ signal after addition of Lys-Des-Arg^9 bradykinin (>=50 nM) or Des-Arg^9 bradykinin (10 μM) is obtained therefrom. After incubation for 10-20 minutes, Lys-Des-Arg^9 bradykinin (hB1R) or Des-Arg^9 bradykinin (rB1R) is applied in the EC80 concentration and the inflow of Ca^2+ is likewise determined.
Antagonists lead to a suppression of the Ca^2+ inflow. The % inhibition in comparison with the maximum achievable inhibition is calculated. […]

Point of comparison: `O=C(CC1c2cccn2CCN1S(=O)(=O)c1ccccc1)N1CCC(N2CCCC2)CC1` (centres unmarked) [Example 175, 2-[2-(Benzenesulfonyl)-1,2,3,4-tetrahydro-pyrrolo[1,2-a]pyrazin-1-yl]-1-(4-pyrrolidin-1-yl-piperidin-1-yl)-ethanone], inhibition at 10 µM 9.54%. Against it:
- Cc1cccc(Cl)c1S(=O)(=O)N1CCn2cccc2C1CC(=O)NC(CN1CCN(C)CC1)c1ccccc1 (centres unmarked) [Example 156, 2-[2-[(2-Chloro-6-methyl-phenyl)sulfonyl]-1,2,3,4-tetrahydro-pyrrolo[1,2-a]pyrazin-1-yl]-N-[2-(4-methyl-piperazin-1-yl)-1-phenyl-ethyl]-acetamide] — higher, 95.1%
- Cc1cccc(Cl)c1S(=O)(=O)N1CCn2cccc2C1CC(=O)NC1CCN(Cc2ccccc2)C1 (centres unmarked) [Example 157, N-(1-Benzyl-pyrrolidin-3-yl)-2-[2-[(2-chloro-6-methyl-phenyl)sulfonyl]-1,2,3,4-tetrahydro-pyrrolo[1,2-a]pyrazin-1-yl]-acetamide] — higher, 69.5%
- Cc1cccc(Cl)c1S(=O)(=O)N1CCn2cccc2C1CC(=O)N1CCN(c2ccccc2F)CC1 (centres unmarked) [Example 158, 2-[2-[(2-Chloro-6-methyl-phenyl)sulfonyl]-1,2,3,4-tetrahydro-pyrrolo[1,2-a]pyrazin-1-yl]-1-[4-(2-fluorophenyl)-piperazin-1-yl]-ethanone] — higher, 32%
- Cc1cccc(Cl)c1S(=O)(=O)N1CCn2cccc2C1CC(=O)N1CCC(N2CCOCC2)CC1 (centres unmarked) [Example 159, 2-[2-[(2-Chloro-6-methyl-phenyl)sulfonyl]-1,2,3,4-tetrahydro-pyrrolo[1,2-a]pyrazin-1-yl]-1-(4-morpholin-4-yl-piperidin-1-yl)-ethanone] — lower, 3.48%
- Cc1cccc(Cl)c1S(=O)(=O)N1CCn2cccc2C1CC(=O)N1CCC(N2CCCCC2)CC1 (centres unmarked) [Example 160, 2-[2-[(2-Chloro-6-methyl-phenyl)sulfonyl]-1,2,3,4-tetrahydro-pyrrolo[1,2-a]pyrazin-1-yl]-1-(4-piperidin-1-yl-piperidin-1-yl)-ethanone] — higher, 42.8%
- Cc1cccc(Cl)c1S(=O)(=O)N1CCn2cccc2C1CC(=O)N1CCC(N2CCN(C)CC2)CC1 (centres unmarked) [Example 161, 2-[2-[(2-Chloro-6-methyl-phenyl)sulfonyl]-1,2,3,4-tetrahydro-pyrrolo[1,2-a]pyrazin-1-yl]-1-[4-(4-methyl-piperazin-1-yl)-piperidin-1-yl]-ethanone] — higher, 10.5%
- Cc1cccc(Cl)c1S(=O)(=O)N1CCn2cccc2C1CC(=O)N1CCN(c2ncccn2)CC1 (centres unmarked) [Example 162, 2-[2-[(2-Chloro-6-methyl-phenyl)sulfonyl]-1,2,3,4-tetrahydro-pyrrolo[1,2-a]pyrazin-1-yl]-1-(4-pyrimidin-2-yl-piperazin-1-yl)-ethanone] — higher, 25.2%
- Cc1ccc2[nH]c(C3CCN(C(=O)CC4c5cccn5CCN4S(=O)(=O)c4c(C)cccc4Cl)CC3)nc2c1 (centres unmarked) [Example 163, 2-[2-[(2-Chloro-6-methyl-phenyl)sulfonyl]-1,2,3,4-tetrahydro-pyrrolo[1,2-a]pyrazin-1-yl]-1-[4-(5-methyl-1H-benzoimidazol-2-yl)-piperidin-1-yl]-ethanone] — higher, 39.7%
- Cc1cccc(Cl)c1S(=O)(=O)N1CCn2cccc2C1CC(=O)N1CCCN(c2ncccc2C#N)CC1 (centres unmarked) [Example 164, 2-[4-[2-[2-[(2-Chloro-6-methyl-phenyl)sulfonyl]-1,2,3,4-tetrahydro-pyrrolo[1,2-a]pyrazin-1-yl]-acetyl]-[1,4]diazepan-1-yl]-pyridine-3-carbonitrile] — higher, 44.1%
- Cc1cccc(Cl)c1S(=O)(=O)N1CCn2cccc2C1CC(=O)N1CCC(CCN2CCCCC2)CC1 (centres unmarked) [Example 165, 2-[2-[(2-Chloro-6-methyl-phenyl)sulfonyl]-1,2,3,4-tetrahydro-pyrrolo[1,2-a]pyrazin-1-yl]-1-[4-(2-piperidin-1-yl-ethyl)-piperidin-1-yl]-ethanone] — higher, 55.8%
- Cc1cccc(Cl)c1S(=O)(=O)N1CCn2cccc2C1CC(=O)NCC1CCN(Cc2ccccc2)C1 (centres unmarked) [Example 166, N-[(1-Benzyl-pyrrolidin-3-yl)-methyl]-2-[2-[(2-chloro-6-methyl-phenyl)sulfonyl]-1,2,3,4-tetrahydro-pyrrolo[1,2-a]pyrazin-1-yl]-acetamide] — higher, 99.1%
- O=C(CC1c2cccn2CCN1S(=O)(=O)c1ccccc1)N1CCC(O)(c2cccnc2)CC1 (centres unmarked) [Example 167, 2-[2-(Benzenesulfonyl)-1,2,3,4-tetrahydro-pyrrolo[1,2-a]pyrazin-1-yl]-1-(4-hydroxy-4-pyridin-3-yl-piperidin-1-yl)-ethanone] — lower, 0.145%
- O=C(CC1c2cccn2CCN1S(=O)(=O)c1ccccc1)NCCN1CCCC1 (centres unmarked) [Example 168, 2-[2-(Benzenesulfonyl)-1,2,3,4-tetrahydro-pyrrolo[1,2-a]pyrazin-1-yl]-N-(2-pyrrolidin-1-yl-ethyl)-acetamide] — higher, 40.1%
- CC1CCCC(C)N1CCCNC(=O)CC1c2cccn2CCN1S(=O)(=O)c1ccccc1 (centres unmarked) [Example 169, 2-[2-(Benzenesulfonyl)-1,2,3,4-tetrahydro-pyrrolo[1,2-a]pyrazin-1-yl]-N-[3-(2,6-dimethyl-piperidin-1-yl)-propyl]-acetamide] — lower, 7.57%
- CN1CCN(CC(NC(=O)CC2c3cccn3CCN2S(=O)(=O)c2ccccc2)c2ccccc2)CC1 (centres unmarked) [Example 170, 2-[2-(Benzenesulfonyl)-1,2,3,4-tetrahydro-pyrrolo[1,2-a]pyrazin-1-yl]-N-[2-(4-methyl-piperazin-1-yl)-1-phenyl-ethyl]-acetamide] — higher, 68.4%
- O=C(CC1c2cccn2CCN1S(=O)(=O)c1ccccc1)NC1CCN(Cc2ccccc2)C1 (centres unmarked) [Example 171, 2-[2-(Benzenesulfonyl)-1,2,3,4-tetrahydro-pyrrolo[1,2-a]pyrazin-1-yl]-N-(1-benzyl-pyrrolidin-3-yl)-acetamide] — higher, 24.4%
- O=C(CC1c2cccn2CCN1S(=O)(=O)c1ccccc1)N1CCN(c2ccccc2F)CC1 (centres unmarked) [Example 172, 2-[2-(Benzenesulfonyl)-1,2,3,4-tetrahydro-pyrrolo[1,2-a]pyrazin-1-yl]-1-[4-(2-fluorophenyl)-piperazin-1-yl]-ethanone] — higher, 14.1%
- CCN1CCN(C(=O)CC2c3cccn3CCN2S(=O)(=O)c2ccccc2)CC1 (centres unmarked) [Example 173, 2-[2-(Benzenesulfonyl)-1,2,3,4-tetrahydro-pyrrolo[1,2-a]pyrazin-1-yl]-1-(4-ethyl-piperazin-1-yl)-ethanone] — higher, 9.74%
- O=C(CC1c2cccn2CCN1S(=O)(=O)c1ccccc1)N1CCN(c2ccccc2)CC1 (centres unmarked) [Example 174, 2-[2-(Benzenesulfonyl)-1,2,3,4-tetrahydro-pyrrolo[1,2-a]pyrazin-1-yl]-1-(4-phenyl-piperazin-1-yl)-ethanone] — higher, 28%

— patent publication US8158628B2, “Sulfonylated 1,2,3,4-tetrahydropyrrolo[1,2-a]pyrazine compounds and their use as pharmaceuticals” (Gruenenthal GmbH, priority 2009, dated 2012)
